From publication PMC5510229, “BCAT1 controls metabolic reprogramming in activated human macrophages and is associated with inflammatory diseases” (Nature Communications, 2017)

Assays:
[1] = test system: human monocyte-derived macrophages (hMDMs); assay: hMDM cell viability (alamarBlue); assay type: cell-based; details: ERG240 20 mM
Method: Migration of BMDMs an d viability of hMDMs
The migration of BMDMs was assessed using a modified Bo yden chamber methodology.
Specificall y, mouse BMDMs were tr ypsinized and suspended in serum free incomplete medi a containing various concentrations of the drug at a cell density of 2.5x10^4 cells/mL. Volumes of 400 µL of cell suspens ions were added onto the upper chamber of 6.5 m m transwell inserts (Costar, Cat. No. 3422), placed in a 24-well plate (Costar). A volume of 1.5 mL of complete media containing 10% FBS as chemo- attractant were added into the lower chambers of the plate. The assa y also included wells with lower chambers containing serum free incomplete media as negative control. […]
To determine the effect of ERG240 on the total number of BMDMs, cell s were plated onto a 96-well plate at a density of 5,000 cells per well in complete media and allowed to adhere overnight. The cells were then exposed to various drug concentrations overnight and the cell population was quantified with CyQuant Cell Proliferation kit (Life Technologies) using triplicates, in two independent experiments. For hMDMs, cell viability was determined using the alamarBlue® Assa y (Invitrogen). […]
backed up by quantitative proteomics by LC -MS/MS (with maximum of the 12 most abundant multiply -charged ions registered in each survey spectrum selected in a data - […]

[2] = test system: human monocyte-derived macrophages (hMDMs); assay: Seahorse extracellular flux analysis (OCR, ECAR) in hMDMs; assay type: cell-based; details: LPS 100 ng ml^−1 + ERG240 20 mM, 3 h
Method: Figure 2 BCAT1 inhibition reduces oxygen consumption and glycolysis in human macrophages. (a) Real-time extracellular OCR measurements in hMDMs (left panel) that were previously treated with either LPS (100 ng ml^−1) or LPS+ERG240 (20 mM) for 3 h. OCR values were recorded following sequential treatments with glucose (5 mM), oligomycin A (0.5 μM), carbonyl cyanide 4-(trifluoromethoxy) phenyl- hydrazine (FCCP, 1 μM) and a combination of 2-deoxy-D-glucose (2-DG, 50 mM), antimycin A (1 μM) and rotenone (1 μM). Basal respiration, estimated ATP production, and maximal respiration are shown in the right panel. n=3 healthy donor hMDMs were used in 12 technical replicates. The results are representative of three independent experiments. (b) Real-time ECAR (left panel), glycolysis and glycolytic capacity (right panel). n=3 healthy donor hMDMs were used in 12 technical replicates. The results are representative of three independent experiments. (c) hMDMs were subjected to BCAT1 siRNA (si-BCAT1) or non-targeting siRNA (Si-Control) treatment, followed by LPS stimulation (3 h, 100 ng ml^−1) before measuring BCAT1 expression levels (left panel), OCR (middle panel) and ECAR (right panel). (d) Basal respiration, estimated ATP production, maximal respiration, glycolysis and glycolytic capacity in si-Control and si-BCAT1 transfected, LPS-treated hMDMs. n=4 hMDMs were used in at least five technical replicates. Error bars are s.e.m. Significance was tested using two-tailed Student’s t-test.
Real-time measurements of OCR and ECAR were performed using a Seahorse XF96 Extracellular Flux Analyzer (Seahorse Bioscience). hMDMs cultured for 5 days in presence of RPMI containing M-CSF (100 ng ml^−1) and FCS (10%) were washed and incubated with either ERG240 or LPS or a combination of both for 3 h. Cells were then washed, re-suspended using the non-enzymatic cell dissociation buffer (Sigma) and 5 × 10^5 hMDMs were seeded as a monolayer in a 96-well microplate containing XF Assay Modified DMEM. Glucose and different metabolic drugs were injected during real-time measurements of OCR and ECAR. Basal respiration was calculated as the last measurement before addition of oligomycin – non mitochondrial respiration (minimum rate measurement after Rot/AntA). Estimated ATP production designates the last measurement before addition of oligomycin – minimum rate after oligomycin. Maximal respiration is shown as the maximum rate measurement after addition of FCCP – non mitochondrial respiration (minimum rate measurement after Rot/AntA). Glycolysis refers to ECAR values before the addition of oligomycin – ECAR values before the addition of glucose. […] In RNAi experiments, hMDMs transfected with either BCAT1 siRNA or control (non-targeting) siRNA were seeded in a 96-well microplate, LPS-stimulated (100 ng ml^−1, 3 h) and real-time measurements of OCR and ECAR were recorded, as described above.

SMILES: CC(=O)C(C)CCC(=O)O (stereo not drawn) [ERG240]
- cell viability at 3 and 8 h ([1]; control and LPS-treated hMDMs): did not affect cell viability
- cell viability at 24 h ([1]; only in LPS-stimulated cells): modest but significant reduction in cell viability
- basal respiration [2]: significantly reduced
- estimated ATP production [2]: significantly reduced
- extracellular acidification rate (ECAR) [2]: decreased
- glycolysis [2]: significantly reduced
- glycolytic capacity [2]: significantly reduced
- maximal respiration [2]: significantly reduced
- oxygen consumption rate (OCR) [2]: decreased
